Data on 31 molecules can be found in PubChem BioAssay AID179 (DTP/NCI, 2004).

The subject of this experiment is CEM cells HIV-1 protection, formazan growth assay. In words: NCI AIDS Antiviral Assay. The following applies: for IC50: measured here: growth of uninfected CEM cells. The method in brief: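 Screen of anti-HIV-1 activity in human CEM cells using a formazan-based growth measurement at five drug concentrations. Hits with 50% or greater protection were repeated, and confirmation required reproducible complete protection.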

Molecules are shown by their SMILES. The source made the active and inactive calls.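 The calls were made as follows: active = compounds giving half or more protection of infected cells from virus-caused growth loss, again on retest; inactive = the rest.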

Take `CCCCCCCCCCCCCCCCCc1nc(C#N)c(N)o1`: the EC50 was greater than 200 µM and the concentration for half-maximal inhibition (IC50) is 25.1 µM.

Turning to `CN(C)Cc1cc(C(=O)/C=C/c2ccccc2)cc(CN(C)C)c1O`, the EC50 was greater than 200 µM and the IC50 came out at 25.1 µM. The like results for `Cc1ccc2c(c1)CC1(Cc3c(C)cccc3C1=O)C2=O` (stereo not given) were, in that order, greater than 200 µM and greater than 200 µM.

Take `O=C(/C(=C/c1ccc(Cl)cc1)c1ccccc1)c1ccccc1`: the EC50 was greater than 8.51 µM and the half-inhibitory concentration (IC50) was greater than 8.51 µM.

Regarding `CCCCCCCCCCCCCCNC1=C(OC)C(=O)C(NCCCCCCCCCCCCCC)=C(OC)C1=O`, the EC50 is greater than 79.4 µM and the IC50 was greater than 79.4 µM.

In the case of `O=C1OCCc2c1[nH]c1ccccc21`, the EC50 was greater than 363 µM and the 50% inhibitory concentration (IC50) is 219 µM.

As to `Cn1cccc1/C=N/N=C(/N)NO`, the outcome was inactive. Turning to `COC(=O)c1nn(-c2ccccc2)c(=O)cc1N=[N+]=[N-]`, the EC50 was greater than 200 µM and the IC50 is 112 µM.

Turning to `c1ccc(C2=NOC3C4CCC(C4)C23)cc1` (stereo not given), the result was inactive. As to `OCC1=CCN2C[C@@H](O)[C@@H](O)[C@@H]12`, the EC50 was greater than 200 µM and the 50% inhibitory concentration (IC50) was greater than 200 µM. `CC1(C)C2CCC1C(SC(=N)N)C2` (stereo not given): the EC50 is greater than 200 µM and the IC50 was 43.7 µM.

Regarding `OC(C1CCC=NN1C(O)(C(F)(F)F)C(F)(F)F)(C(F)(F)F)C(F)(F)F` (stereo not given), the EC50 is greater than 200 µM and the half-maximal inhibitory concentration (IC50) worked out at 26.9 µM.

Turning to `CC1(C)C(c2ccccc2)=NN(O)c2ccccc21`, the outcome was inactive. In the case of `c1ccc2c(C3NCCc4[nH]cnc43)cccc2c1` (stereo not given), the EC50 is greater than 525 µM and the IC50 was greater than 525 µM. For the molecule `C=CC1CN2CCC1CC2C(O)c1ccnc2ccc(OC)cc12` (stereo not given), the EC50 is greater than 200 µM and the IC50 is greater than 100 µM. The corresponding values for `O=C1C(C(O)(C(F)(F)Cl)C(F)(F)Cl)CCC1C(O)(C(F)(F)Cl)C(F)(F)Cl` (stereo not given) are greater than 200 µM and 4.37 µM. Turning to `O=C(NC12CC3CC(CC(C3)C1)C2)C(=O)c1c[nH]c2ccccc12`, the outcome was inactive. Regarding `O=C(NC(Cc1c[nH]c2ccccc12)C(=O)O)/C(=C/c1ccccc1)NC(=O)c1ccccc1` (stereo not given), the EC50 was greater than 200 µM and the half-maximal inhibitory concentration (IC50) turned out to be 135 µM.

Consider `CC1=C(C(=O)Nc2cc(=O)n(C)c(=O)n2C)C(c2ccc([N+](=O)[O-])cc2)C(C(=O)Nc2cc(=O)n(C)c(=O)n2C)=C(C)N1`, for which the EC50 is greater than 8.71 µM and the IC50 was greater than 8.71 µM.

Consider `O=C1NC(=S)N(c2ccccc2)C1=O`, for which the EC50 was greater than 200 µM and the IC50 was greater than 200 µM. As for `CC(C)CC1[C@@H](OCc2ccccc2)COS(=O)N1Cc1ccccc1` (stereo not given in full), the EC50 is greater than 200 µM and the IC50 amounted to 26.3 µM. Consider `O=C1c2c(Br)sc(Br)c2[C@@H](NC(=O)C(F)(F)F)C1Br` (stereo not given in full), for which the EC50 was greater than 200 µM and the half-maximal inhibitory concentration (IC50) came to 3.8 µM.

In the case of `Nc1cc(Cl)c(S(=O)(=O)O)cc1Cl`, the EC50 was greater than 200 µM and the half-inhibitory concentration (IC50) was greater than 200 µM. Consider `O=C(OCCCl)c1ccccc1NC(=O)N1CCOCC1`, for which the outcome was inactive.

Regarding `COCc1cc2c(cc1/C=C/[N+](=O)[O-])OCO2`, the EC50 is greater than 200 µM and the IC50 stood at 2.95 µM.

Regarding `C=Cc1nc(C#N)c(N)o1`, the result was inactive.

Consider `O=[N+]([O-])c1ccc(Cl)cc1C1ON=C(c2ccccc2)N1C12CC3CC(CC(C3)C1)C2` (stereo not given), for which the EC50 was greater than 100 µM and the half-inhibitory concentration (IC50) is greater than 100 µM. `O=C(c1ccc(Cl)cc1)N(C(=O)N1CCCCC1)c1ccccc1`: the EC50 was greater than 200 µM and the concentration for half-maximal inhibition (IC50) is 81.3 µM.

For the molecule `C=CCn1c(-c2ccc(Cl)cc2Cl)csc1=Nc1c(C)n(C)n(-c2ccccc2)c1=O`, the EC50 is greater than 200 µM and the IC50 came out at 6.61 µM. The corresponding values for `Oc1ccccc1-c1nn2c(CCCCCCCCc3nnc4sc(-c5ccccc5O)nn34)nnc2s1` are greater than 200 µM and 12 µM. With `O=C(O)/C(Cl)=C(\Cl)C(=O)Nc1ccc(Cl)c(Cl)c1Cl`, the result was inactive.
